Here are results for eight molecules from patent US20210323976A1, “HETEROARYL COMPOUNDS FOR KINASE INHIBITION” (ARIAD Pharmaceuticals, Inc., priority 2015, published 2021).

In assay [1] the target is EGFR exon 20 NPG insertion (H773_V774insNPG) (Homo sapiens, UniProt P00533, cells depend on it, form not given). The assay is described as follows: Ba/F3-EGFR-Exon20-NPG cell anti-proliferation assay (MTS, CellTiter 96 AQueous One). The conditions noted are these: 72 h, MTS signal. The format is cell-based. From the text:
A compound's ability in selectively inhibiting EGFR exon 20 insertion mutations can be assessed using Ba/F3 cells, a murine pro-B cell line, which have been transduced with EGFR exon 20 insertions. An expression vector, pLVX-IRES puro (Clontech) coding for human EGFR exon 20 insertions NPG (H773_V774insNPG) or ASV (V769_D770insASV), was transfected into HEK293 cells by the Trans-Lentiviral ORF Packaging System (Thermo Scientific), to produce virus encoding EGFR exon 20 insertions. Ba/F3 (DSMZ) cells maintained in RPM11640 medium supplemented with 10% fetal bovine serum, 200 pM L-glutamine/200 µg/mL penicillin/200 µg/mL streptomycin (Life Technology) and 10 ng/mL IL-3 (R&D system), were infected by EGFR Exon20 virus and subsequently selected by puromycin (Life Technology) selection and IL-3 depletion. Ba/F3 cells expressing EGFR exon 20 insertions (named Ba/F3-EGFR-Exon20-NPG or Ba/F3-EGFR-Exon20-ASV) can proliferate in the absence of IL-3. The anti-proliferative activity of compounds were determined as follows: BaF3-EGFR-Exon20 cells (NPG or ASV) seeded in 96 well plates (2500 cells/well) were treated with test compound (dissolved in DMSO) at a series of concentrations (4-fold dilution, top concentration: 10,000 nM). The plates were incubated for 72 h in a 37° C. incubator with 5% CO2, and the number of viable cells in each well were measured indirectly by CellTiter 96® Aqueous One Solution Cell Proliferation Assay (Promega) This assay is a colorimetric method for determining the number of viable cells through measurement of their metabolic activity by detection of enzymatic conversion of tetrazolium salts into blue formazan derivatives. Reagent (20 pL) was added into each well, and the plates were returned to the incubator for 2 h. The absorbance in each well was then measured at 490 nm using an Envision plate reader (Perkin Elmer). IC50 values were calculated by determining the concentration of compound required to decrease the MTS signal by 50% comparing to the DMSO control in best-fit curves using Microsoft XLfit software or Accelrys Pipeline Pilot.

Assay [2] addresses T1, EGFR exon 19 deletion (E746-A750) and T790M mutation (Homo sapiens, UniProt P00533, DEL746-750/T790M).
T1 construct: expressed in transfected cells; host or cells: Ba/F3 (murine pro-B) cells, lentiviral transduction with pLVX-IRES puro
As to the kind of experiment: Ba/F3-EGFR-Del/T790M cell anti-proliferation assay (MTS). The format is cell-based. Conditions: Ba/F3-EGFR-Del/T790M cells, 72 h, MTS signal. From the text: A compound's ability in selectively inhibiting EGFR exon 19 deletion and T790M concurrent mutations can be assessed using Ba/F3 cells, a murine pro-B cell line, which have been transduced with EGFR exon 19 deletion and T790M mutation. An expression vector, pLVX-IRES puro (Clontech) coding for human EGFR E746-A750 deletion and T790M Mutation, was transfected into HEK293 cells by the Trans-Lentiviral ORF Packaging System (Thermo Scientific), to produce virus encoding EGFR exon 19 deletion and T790M mutations. Ba/F3 (DSMZ) cells maintained in RPM11640 medium supplemented with 10% fetal bovine serum, 200 pM L-glutamine/200 μg/mL penicillin/200 μg/mL streptomycin (Life Technology) and 10 ng/mL IL-3 (R&D system), were infected by EGFR E746-A750 deletion and T790M Mutation virus and subsequently selected by puromycin (Life Technology) selection and IL-3 depletion. Ba/F3 cells expressing EGFR E746-A750 deletion and T790M Mutation (named Ba/F3-EGFR-Del/T790M) can proliferate in the absence of IL-3. The anti-proliferative activity of compounds was determined as follows: BaF3-EGFR-Del/T790M cells seeded in 96 well plates (2500 cells/well) were treated with test compound (dissolved in DMSO) at a series of concentrations (4-fold dilution, top concentration: 10,000 nM). The plates were incubated for 72 h in a 37° C. incubator with 5% CO2, and the number of viable cells in each well were measured indirectly by CellTiter 96® Aqueous One Solution Cell Proliferation Assay (Promega; this assay is a colorimetric method for determining the number of viable cells through measurement of their metabolic activity by detection of enzymatic conversion of tetrazolium salts into blue formazan derivatives). Reagent (20 pL) was added into each well, and the plates were returned to the incubator for 2 h. The absorbance in each well was then measured at 490 nm using an Envision plate reader (Perkin Elmer). IC50 values were calculated by determining the concentration of compound required to decrease the MTS signal by 50% comparing to the DMSO control in best-fit curves using Microsoft XLfit software or Accelrys Pipeline Pilot.

T1 sequence (P00533 with tags, fused parts or gaps DEL746-750/T790M): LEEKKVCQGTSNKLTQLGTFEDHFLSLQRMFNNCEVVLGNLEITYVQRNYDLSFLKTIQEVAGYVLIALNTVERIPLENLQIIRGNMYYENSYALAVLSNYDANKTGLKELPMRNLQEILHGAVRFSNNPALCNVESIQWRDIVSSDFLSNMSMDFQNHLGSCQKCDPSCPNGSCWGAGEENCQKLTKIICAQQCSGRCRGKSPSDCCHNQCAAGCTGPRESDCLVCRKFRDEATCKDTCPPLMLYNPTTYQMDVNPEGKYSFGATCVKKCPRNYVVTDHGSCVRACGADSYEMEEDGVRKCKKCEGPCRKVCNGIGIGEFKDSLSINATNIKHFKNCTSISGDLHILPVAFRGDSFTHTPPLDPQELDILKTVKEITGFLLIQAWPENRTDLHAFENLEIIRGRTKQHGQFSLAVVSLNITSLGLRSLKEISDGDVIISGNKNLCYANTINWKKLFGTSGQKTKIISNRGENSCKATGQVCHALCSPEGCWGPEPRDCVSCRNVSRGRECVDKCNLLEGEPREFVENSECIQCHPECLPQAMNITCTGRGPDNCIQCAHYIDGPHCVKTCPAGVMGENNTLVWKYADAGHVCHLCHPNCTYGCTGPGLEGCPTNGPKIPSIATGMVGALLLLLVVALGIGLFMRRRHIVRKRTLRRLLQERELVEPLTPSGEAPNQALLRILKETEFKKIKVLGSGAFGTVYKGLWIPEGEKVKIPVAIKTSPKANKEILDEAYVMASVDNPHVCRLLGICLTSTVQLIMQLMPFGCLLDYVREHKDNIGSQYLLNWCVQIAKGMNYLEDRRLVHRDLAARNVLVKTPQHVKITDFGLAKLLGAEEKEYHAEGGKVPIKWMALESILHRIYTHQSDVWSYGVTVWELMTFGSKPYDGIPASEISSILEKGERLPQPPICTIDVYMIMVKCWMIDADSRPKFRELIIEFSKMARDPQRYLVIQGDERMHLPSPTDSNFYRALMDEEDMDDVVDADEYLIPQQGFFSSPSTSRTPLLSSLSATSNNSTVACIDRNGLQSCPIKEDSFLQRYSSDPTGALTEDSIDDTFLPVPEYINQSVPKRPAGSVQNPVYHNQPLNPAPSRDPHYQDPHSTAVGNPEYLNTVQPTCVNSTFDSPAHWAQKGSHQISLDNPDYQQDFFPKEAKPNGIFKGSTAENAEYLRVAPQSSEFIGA
EGFR exon 20 NPG insertion (H773_V774insNPG), sequence (P00533 with tags, fused parts or gaps INS772GNP, form open): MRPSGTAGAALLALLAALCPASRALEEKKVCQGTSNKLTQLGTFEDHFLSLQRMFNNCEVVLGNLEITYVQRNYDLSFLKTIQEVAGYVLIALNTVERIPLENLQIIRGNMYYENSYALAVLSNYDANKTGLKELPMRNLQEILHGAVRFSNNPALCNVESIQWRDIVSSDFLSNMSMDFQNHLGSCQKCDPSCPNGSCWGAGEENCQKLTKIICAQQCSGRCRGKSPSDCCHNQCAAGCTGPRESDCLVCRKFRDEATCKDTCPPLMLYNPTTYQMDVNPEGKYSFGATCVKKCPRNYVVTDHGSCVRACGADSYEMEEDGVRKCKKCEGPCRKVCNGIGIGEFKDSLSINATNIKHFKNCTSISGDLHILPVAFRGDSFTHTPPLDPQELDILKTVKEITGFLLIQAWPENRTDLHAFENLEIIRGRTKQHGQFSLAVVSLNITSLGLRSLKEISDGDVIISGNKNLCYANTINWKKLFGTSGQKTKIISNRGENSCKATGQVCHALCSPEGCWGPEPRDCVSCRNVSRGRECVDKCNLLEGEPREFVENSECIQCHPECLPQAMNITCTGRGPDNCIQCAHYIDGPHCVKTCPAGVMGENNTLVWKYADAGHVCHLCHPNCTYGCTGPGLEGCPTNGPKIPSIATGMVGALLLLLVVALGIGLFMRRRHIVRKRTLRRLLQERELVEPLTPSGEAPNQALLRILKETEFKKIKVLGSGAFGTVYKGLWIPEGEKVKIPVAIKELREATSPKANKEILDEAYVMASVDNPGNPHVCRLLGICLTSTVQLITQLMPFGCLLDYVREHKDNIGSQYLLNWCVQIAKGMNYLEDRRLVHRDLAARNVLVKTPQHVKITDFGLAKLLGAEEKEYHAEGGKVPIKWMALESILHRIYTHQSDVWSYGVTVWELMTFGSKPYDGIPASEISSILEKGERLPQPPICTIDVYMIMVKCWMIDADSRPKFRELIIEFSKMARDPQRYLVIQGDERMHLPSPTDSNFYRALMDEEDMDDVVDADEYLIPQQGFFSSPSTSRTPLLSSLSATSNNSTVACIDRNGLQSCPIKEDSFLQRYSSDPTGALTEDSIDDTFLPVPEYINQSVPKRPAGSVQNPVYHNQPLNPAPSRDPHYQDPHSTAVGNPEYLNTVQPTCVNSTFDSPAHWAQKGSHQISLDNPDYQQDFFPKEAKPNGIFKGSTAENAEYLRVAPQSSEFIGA

Consider `C=CC(=O)Nc1cc(Nc2nccc(-c3c4n(c5ccccc35)CCOC4)n2)c(OC)cc1N(C)CCN(C)C` [Example 1, N-(5-((4-(3,4-dihydro-1H-[1,4]oxazino[4,3-a]indol-10-yl)pyrimidin-2-yl)amino)-2-((2-(dimethylamino)ethyl)(methyl)amino)-4-methoxyphenyl)acrylamide], for which the IC50 in assay [1] is below 100 nM. In addition, the “EGFR exon 19 deletion and T790M mutation IC50” value in assay [2] is reported as “A (Group A compounds have an IC50 value for the indicated mutant below about 100 nM)”.
With `C=CC(=O)Nc1cc(Nc2nccc(-c3c4n(c5ccccc35)CCN(C)C4=O)n2)c(OC)cc1N(C)CCN(C)C` [Example 2, N-(2-((2-(dimethylamino)ethyl)(methyl)amino)-4-methoxy-5-((4-(2-methyl-1-oxo-1,2,3,4-tetrahydropyrazino[1,2-a]indol-10-yl)pyrimidin-2-yl)amino)phenyl)acrylamide], the “EGFR exon 19 deletion and T790M mutation IC50” value in assay [2] is “A (Group A compounds have an IC50 value for the indicated mutant below about 100 nM)”.
Molecule `C=CC(=O)Nc1cc(Nc2nccc(-c3c4n(c5ccccc35)CC(O)CC4)n2)c(OC)cc1N(C)CCN(C)C` (stereo not shown) [Example 3, N-(2-((2-(dimethylamino)ethyl)(methyl)amino)-5-((4-(7-hydroxy-6,7,8,9-tetrahydropyrido[1,2-a]indol-10-yl)pyrimidin-2-yl)amino)-4-methoxyphenyl)acrylamide] came in with an IC50 in assay [1] below 100 nM. The “EGFR exon 19 deletion and T790M mutation IC50” value in assay [2] was “A (Group A compounds have an IC50 value for the indicated mutant below about 100 nM)”.
`C=CC(=O)Nc1cc(Nc2nccc(-c3c4n(c5ccccc35)CC3OC(C)(C)OC3C4)n2)c(OC)cc1N(C)CCN(C)C` (stereo not drawn) [Example 4, N-(5-((4-(cis-2,2-dimethyl-3a,4,11,11a-tetrahydro-[1,3]dioxolo[4′,5′:4,5]pyrido[1,2-a]indol-10-yl)pyrimidin-2-yl)amino)-2-((2-(dimethylamino)ethyl)(methyl)amino)-4-methoxyphenyl)acrylamide]: the “EGFR exon 19 deletion and T790M mutation IC50” value in assay [2] is on record as “A (Group A compounds have an IC50 value for the indicated mutant below about 100 nM)”.
On to `C=CC(=O)Nc1cc(Nc2nccc(-c3c4n(c5ccccc35)CCCC4)n2)c(OC)cc1N(C)CCN(C)C` [Example 5, N-(2-((2-(dimethylamino)ethyl)(methyl)amino)-4-methoxy-5-((4-(6,7,8,9-tetrahydropyrido[1,2-a]indol-10-yl)pyrimidin-2-yl)amino)phenyl)acrylamide], for which the “EGFR exon 19 deletion and T790M mutation IC50” value in assay [2] was “A (Group A compounds have an IC50 value for the indicated mutant below about 100 nM)”.
Still for that read-out and setting: under `C=CC(=O)Nc1cc(Nc2nccc(-c3c4n(c5ccccc35)CC(O)C(O)C4)n2)c(OC)cc1N(C)CCN(C)C` (stereo not drawn) [Example 6, N-(5-((4-(cis-7,8-dihydroxy-6,7,8,9-tetrahydropyrido[1,2-a]indol-10-yl)pyrimidin-2-yl)amino)-2-((2-(dimethylamino)ethyl)(methyl)amino)-4-methoxyphenyl)acrylamide] stands “A (Group A compounds have an IC50 value for the indicated mutant below about 100 nM)”; under `C=CC(=O)Nc1cc(Nc2nccc(-c3c4n(c5ccccc35)CC(OC)CC4)n2)c(OC)cc1N(C)CCN(C)C` (stereo not shown) [Example 7, N-(2-((2-(dimethylamino)ethyl)(methyl)amino)-4-methoxy-5-((4-(7-methoxy-6,7,8,9-tetrahydropyrido[1,2-a]indol-10-yl)pyrimidin-2-yl)amino)phenyl)acrylamide], “A (Group A compounds have an IC50 value for the indicated mutant below about 100 nM)”; under `C=CC(=O)Nc1cc(Nc2nccc(-n3c4c(c5ccccc53)CC(O)CC4)n2)c(OC)cc1N(C)CCN(C)C` (stereo not shown) [Example 10, N-(2-((2-(dimethylamino)ethyl)(methyl)amino)-5-((4-(3-hydroxy-1,2,3,4-tetrahydro-9H-carbazol-9-yl)pyrimidin-2-yl)amino)-4-methoxyphenyl)acrylamide], “A (Group A compounds have an IC50 value for the indicated mutant below about 100 nM)”.

The term IC50 denotes the concentration needed to halve the response being measured. Lower therefore signals greater potency.
